The values that follow come from US10525044B2, “Treatment for chemotherapy-induced peripheral neuropathy” (priority 2013, dated 2020).

Entries after “also recorded” stand apart in the source; their conditions may differ.

The test system of data set [1] is mixed cortical and striatal neurons. The data set is described as follows: Morphological assessment of neuronal cell death. Format: cell-based, Sprague-Dawley rats. As to conditions: MTX 100 μM, 5-FU 25 μM, CDDP 3.5 μM; for visible cell damage: neurons in 25% AO, 3 days; for neuronal cell death / loss of neurons (morphology): AO reduced to 12.5% for 5 hours at 16 d.i.v. How it is done: (§1) Neuronal Cell Culture. Mixed cortical and striatal neurons fromembryonic day 17 male Sprague-Dawley rats (tissue obtained from NIH) were seeded into poly-D-lysine coated 96-well plates at density of 50,000 cells/well and initially cultured at 37° C., 5% CO2, in neurobasal medium (NB) with B27 supplement (Invitrogen) containing full strength of AOs to obtain highly enriched (95%) neurons. Since AOs, including vitamin E, vitamin E acetate, superoxide dismutase (SOD), catalase (CAT), and GSH, are additives to culture medium, reduction of AO concentration in culture medium provides an approach to determine the level of OS involvement in a neurotoxic process. In our study, the culture medium was replaced at a 50% ratio with NB plus B27 minus AOs twice at days 7 and 9 to set AO concentrations as 50% and 25%, respectively. At 16 days in vitro (d.i.v.), a fraction of the culture medium was harvested for lactate dehydrogenase (LDH) assay, and then AO concentration was reduced to 12.5% and cultured for a further 5 hours prior to ending the experiment.
(§2) Cell Insults and Treatments. Determination of concentration for each anticancer drug in our experiments was based on its reported concentration in human cerebral spinal fluid (CSF) in chemotherapy, literature report of its neurotoxicity in culture, and our preliminary in vitro experimental data. At 13 d.i.v., the neuronal cell cultures were insulted with 100 μM of MTX (M9929, Sigma), 25 μM of 5-FU (F6627, Sigma), or 3.5 μM of CDDP (sc-200896, Santa Cruz) for 3 days in absence or presence of PAN 811.Cl.H2O. For ROS examination, the neurons were insulted with both 100 μM of MTX and 25 μM of 5-FU by 15 d.i.v. PAN-811.Cl.H2O was added to cultures to final concentrations of 1.25, 2.5, 5, and 10 μM at the same time as addition of the anticancer drugs. For cancer cell lines, the cells were insulted by the second day of cell seeding with the same concentration of MTX, 5-FU, or CDDP as used in neuronal culture in the absence or presence of 10 μM PAN-811.Cl.H2O for another 3 days.
(§3) Quantitative Assays and Morphological Assessment. Cell membrane integrity and mitochondrial function of either neurons or cancer cells were measured with LDH and 3-(4,5-dimethylthiazol-2-yl)-5-(3-carboxymethoxyphenyl)-2-(4-sulfophenyl)-2H-tetrazolium [MTS] analyses, respectively. The latter has been used to quantify cell survival. For the LDH assay, a mixture of a 35 μL aliquot of culture supernatant and 17.5 μL of Mixed Substrate, Enzyme and Dye Solutions (Sigma) was incubated at room temperature (RT) for 30 minutes. For the MTS assay, 10 μL of MTS reagent (Promega) was added to a culture well containing neurons in 50 μL of medium. The preparations were incubated at 37° C. for 2 hours. The preparations for both assays were then spectrophotometrically measured at 490 nm using a 96-well plate reader (Mode 550, Bio-Rad). Neuronal cell death was morphologically determined based on the integrity of the cell soma and continuity of neuronal processes. The change in number of cancer cells was judged directly by cell density. Cells were photographed under an inverted phase contrast microscope (IX 70, Olympus) using 10× or 20× objective.

Data set [2] relates to human lung cancer cell line H460. Description: Cell density of H460 cells (phase contrast). The data set is classed as cell-based. As to conditions: each agent alone, 3 days: MTX 100 μM, 5-FU 25 μM, CDDP 3.5 μM, PAN-811 10 μM. How it is done: (§4) Cancer Cell Culture. The mouse liver cancer cell line BNLT3 (gift of Dr. Jack Wands, Brown University) and the human lung cancer cell line H460 (ATCC) were seeded into 96-well plates at a density of 4,000 cells/well and cultured at 37° C., 5% CO2, in DMEM (11965, Gibco) supplemented with 10% fetal bovine serum, 20 mM HEPES, 1 mM sodium pyruvate, and […] gentamycin (all reagents came from Gibco).
as §2, §3

The test system of data set [3] is mouse liver cancer cell line BNLT3. Description: Cell density of BNLT3 cells (phase contrast). The data set is classed as cell-based. The following applies: each agent alone, 3 days: MTX 100 μM, 5-FU 25 μM, CDDP 3.5 μM, PAN-811 10 μM. How it is done: as §4, §2, §3
In data set [4] the test system is human lung cancer cell line H460. Description: LDH assay (membrane integrity) in H460 cancer cells. The following applies: each agent alone, 3 days: MTX 100 μM, 5-FU 25 μM, CDDP 3.5 μM, PAN-811 10 μM. The data set is classed as cell-based. Here is the method: as §4
as §2, with “[…] […]” for “At 13 d.i.v., the neuronal cell cultures were insulted with 100 μM of MTX (M9929, Sigma), 25 μM of 5-FU (F6627, Sigma), or 3.5 μM of CDDP (sc-200896, Santa Cruz) for 3 days in absence or presence of PAN 811.Cl.H2O. For ROS examination, the neurons were insulted with both 100 μM of MTX and 25 μM of 5-FU by 15 d.i.v.”
as §3
(§5) Data Analysis. Data were generated from 4-6 replicate wells, expressed as mean±standard deviation (SD), and statistically evaluated at a significance level of 1% with one factor ANOVA or Student's t-test by using software VASSARSTATS (http://vassarstats.net/) followed by the Tukey HSD test. Figure symbols are as follows: #, P<0.05, and ##, P<0.01, compared with control; *, P<0.05, and **, P<0.01, compared with the insulted group; §§, P<0.01, compared with PAN-811 treated group by Student's t-test.

Data set [5] relates to mixed cortical and striatal neurons. The data set is described as follows: MTS assay (cell viability) in neuronal cell culture. Format: cell-based. As to conditions: MTX 100 μM, 5-FU 25 μM, CDDP 3.5 μM; for reduction of MTS reading / effect on MTS reading (in words): neurons in 12.5% AO; for effect on MTS reading (in words): FIG. 2(c); for change in MTS level: neurons in 25% AO, 3 days, data not shown. Here is the method:
as §1, §2, §3, §5

The subject of data set [6] is mouse liver cancer cell line BNLT3. Description: MTS assay in BNLT3 cancer cells. The data set is classed as cell-based. As to conditions: each agent alone, 3 days: MTX 100 μM, 5-FU 25 μM, CDDP 3.5 μM, PAN-811 10 μM. Here is the method:
as §4, §2, §3, §5

The test system of data set [7] is human lung cancer cell line H460. Description: MTS assay in H460 cancer cells. Format: cell-based. The following applies: each agent alone, 3 days: MTX 100 μM, 5-FU 25 μM, CDDP 3.5 μM, PAN-811 10 μM. Here is the method:
as §4, §2, §3, §5

In data set [8] the test system is mixed cortical and striatal neurons. Description: LDH assay (cell membrane integrity) in neuronal cell culture. Format: cell-based. As to conditions: MTX 100 μM, 5-FU 25 μM, CDDP 3.5 μM; for LDH increase in culture supernatant (cell membrane leakage): neurons in 25% AO; for LDH increase in culture supernatant (cell membrane leakage) / morphological changes, LDH release, or MTS reduction: 3 days; for morphological changes, LDH release, or MTS reduction: neurons in 100% or 50% AOs, data not shown; for increase in LDH reading: neurons, FIG. 2(b). Here is the method:
as §1, §2, §3, §5

Data set [9] concerns TRPA1-dependent hypersensitivity. As to conditions: short-term systemic treatment before the cytotoxic drug (bortezomib or oxaliplatin); cited from earlier work.
Data set [10] deals with oxaliplatin-induced behavioral alterations. As to conditions: in vivo; cited from earlier work.

On to `O=c1[nH]cc(F)c(=O)[nH]1` [5-FU, fluorouracil], for which, in data set [1], the visible cell damage result was “no cell damage was visible” and the “neuronal cell death / loss of neurons (morphology)” value was “extensive neuronal cell death; also recorded: robust loss of neurons”. For the same compound, the cell density entry in data set [2] was “robustly decreased the cell density”. The “cell density / cancer cell number” value in data set [3] is given as “significantly reduced the cell density”. Further, in data set [4], the “increase in LDH reading in culture supernatant” value was determined as 124%. For the same compound, in data set [5], the “reduction of MTS reading” value is on record as 27%, the “effect on MTS reading (in words)” value is on record as “significant reduction in MTS readings” and the “change in MTS level” value is “no change in MTS level was detectable”. Besides, in data set [6], the “reduction of MTS reading” value is given as 84%. In addition, the “reduction of MTS reading” value in data set [7] came out at 57%. In data set [8], the “LDH increase in culture supernatant (cell membrane leakage)” value (from here on “LDH increase in culture supernatant”) is “significant LDH increase”; the “morphological changes, LDH release, or MTS reduction” value is given as “neither MTX at 100 μM, 5-FU at 25 μM, nor CDDP at 3.5 μM caused morphological changes, LDH release, or MTS reduction”; the “increase in LDH reading” value is recorded as “significant increases in LDH reading”.

As to `[NH2][Pt]([NH2])([Cl])[Cl]` [CDDP, cisplatin], in data set [1], the visible cell damage result is “no cell damage was visible” and the “neuronal cell death / loss of neurons (morphology)” value is on record as “extensive neuronal cell death; also recorded: robust loss of neurons”. In data set [2], the cell density entry is listed as “greatly decreased the cell density”. The “cell density / cancer cell number” value in [3] is listed as “caused a decrease in the cell density”. Besides, in data set [4], the “increase in LDH reading in culture supernatant” value was determined as 71%. In addition, in data set [5], the “reduction of MTS reading” value worked out at 66%, the “effect on MTS reading (in words)” value was “significant reduction in MTS readings” and the “change in MTS level” value is “no change in MTS level was detectable”. Moreover, the “reduction of MTS reading” value in [6] was determined as 44%. Besides, the “reduction of MTS reading” value in [7] was 22%. In data set [8], the “LDH increase in culture supernatant” value was “significant LDH increase”; the “morphological changes, LDH release, or MTS reduction” value is listed as “neither MTX at 100 μM, 5-FU at 25 μM, nor CDDP at 3.5 μM caused morphological changes, LDH release, or MTS reduction”; the “increase in LDH reading” value was “significant increases in LDH reading”.

`CC(C)c1ccc(NC(=O)Cn2cnc3c2c(=O)n(C)c(=O)n3C)cc1` [HC-030031]: the prevention of hypersensitivity entry in data set [9] is listed as “completely prevent hypersensitivity”.

For the compound `CN(Cc1cnc2nc(N)nc(N)c2n1)c1ccc(C(=O)N[C@@H](CCC(=O)O)C(=O)O)cc1` [MTX, methotrexate], in data set [1], the visible cell damage entry was “no cell damage was visible” and the “neuronal cell death / loss of neurons (morphology)” value is recorded as “did not result in significant loss of cell number”. The cell density result in data set [2] is “robustly decreased the cell density”. For the same compound, the “cell density / cancer cell number” value in data set [3] is “severely reduced the cancer cell number”. Besides, in [4], the “increase in LDH reading in culture supernatant” value is 95%. Also, in data set [5], the “effect on MTS reading (in words)” value is “did not elicit significant MTS reduction; also recorded: did not significantly affect the MTS reading” and the “change in MTS level” value is on record as “no change in MTS level was detectable”. Besides, the “reduction of MTS reading” value in data set [6] came to 85%. The “reduction of MTS reading” value in data set [7] stood at 67%. Besides, in data set [8], the “LDH increase in culture supernatant” value is recorded as “significant LDH increase”; the “morphological changes, LDH release, or MTS reduction” value is recorded as “neither MTX at 100 μM, 5-FU at 25 μM, nor CDDP at 3.5 μM caused morphological changes, LDH release, or MTS reduction”; the “increase in LDH reading” value was “significant increases in LDH reading”.

For the compound `O=C(O)CCCCC1CCSS1` (stereo not drawn) [α-lipoic acid], in [9], the prevention of hypersensitivity result is “completely prevent hypersensitivity”.

In the case of `Cc1c(C)c2c(c(C)c1O)CC[C@@](C)(CCC[C@H](C)CCC[C@H](C)CCCC(C)C)O2` [α-tocopherol], the “antineuropathic effect on oxaliplatin-induced behavioral alterations” value in [10] was “about 50%”.
